Source: ChEMBL document CHEMBL1147380, “Studies on the acetogenins of Formosan annonaceous plants. II. Cytotoxic acetogenins from Annona reticulata” (1993)
Converted amounts (≈) assume the structure as drawn.

How the values were obtained:
Assay type in all cases: functional
P388 = assay: Cytotoxicity against mouse P388 cells; conditions: for EC50: Mus musculus, P388, read-out: ED50 (the source's name)
HT-29 = assay: Cytotoxicity against human HT-29 cells; conditions: for EC50: Homo sapiens, HT-29, read-out: ED50 (the source's name)
A549 = assay: Cytotoxicity against human A549 cells; conditions: for EC50: Homo sapiens, A549, read-out: ED50 (the source's name)
KB = assay: Cytotoxicity against human KB cells; conditions: for EC50: Homo sapiens, KB, read-out: ED50 (the source's name)
MCF7 = assay: Cytotoxicity against human MCF7 cells; conditions: for EC50: Homo sapiens, MCF7, read-out: ED50 (the source's name)

Structure (SMILES) | EC50 (P388) [µg/mL] | EC50 (HT-29) [µg/mL] | EC50 (A549) [µg/mL] | EC50 (KB) [µg/mL] | further results
CCCCCCCCCCCC[C@H](O)[C@@H]1CC[C@@H]([C@@H](O)CCCCCC(=O)CCCCC(O)CC2=CC(C)OC2=O)O1 (some centres not stated) | 0.2 (≈ 0.336 µM) | 1.32 (≈ 2.22 µM) | 0.01 (≈ 0.0168 µM) | 4.66 (≈ 7.83 µM) | 
CCCCCCCCCC[C@@H](O)[C@@H]1CC[C@@H]([C@@H]2CC[C@@H]([C@H](O)CCCCCCCCCC(O)CC3=CC(C)OC3=O)O2)O1 (stereo in doubt; 7) [BULLATACIN] |  |  | 0.001 (≈ 0.00164 µM) | 10 (≈ 16.4 µM) | 
CCCCCCCCCC[C@@H](O)[C@@H]1CC[C@@H]([C@@H]2CC[C@@H]([C@H](O)CCCCCCCCCC(O)CC3=CC(C)OC3=O)O2)O1 (stereo in doubt; 13) [BULLATACIN] |  |  |  |  | ED50 (MCF7): <1 ×10⁻⁵ ug/ml; ED50 (HT-29): <1 ×10⁻³ ug/ml; ED50 (A549): <1 ×10⁻⁵ ug/ml
CCCCCCCCCCCC[C@H](O)[C@@H]1CC[C@@H]([C@@H](O)CC(O)CCCCC(O)CCCC(O)CC2=CC(C)OC2=O)O1 (some centres not stated) [ANNOMONICIN] | 0.24 (≈ 0.392 µM) |  |  | 2.29 (≈ 3.74 µM) | 
CCCCCCCCCCCC[C@@H](O)[C@H]1CC[C@H]([C@H](O)CCCCC(=O)CCCCC[C@@H](O)CC2=C[C@H](C)OC2=O)O1 [ANNONACINONE] |  | 1 (≈ 1.68 µM) | 0.1 (≈ 0.168 µM) | 0.01 (≈ 0.0168 µM) | ED50 (P388): 1 ×10⁻⁶ ug/ml
CCCCCCCCCCCC[C@@H](O)[C@H]1CC[C@H]([C@H](O)CCCC[C@H](O)CCCCC[C@@H](O)CC2=CC(C)OC2=O)O1 (some centres not stated) [ANNONACIN] |  | 3 (≈ 5.03 µM) | 0.001 (≈ 0.00168 µM) |  | ED50 (P388): 1 ×10⁻⁵ ug/ml; ED50 (KB): 1 ×10⁻⁴ ug/ml
CCCCCCCCCCCC[C@H](O)[C@@H]1CC[C@@H]([C@@H](O)CCCCCC(O)CCCCC(O)CC2=CC(C)OC2=O)O1 (some centres not stated) [ANNORETICUIN] | 1 (≈ 1.68 µM) | 2.28 (≈ 3.82 µM) | 0.4 (≈ 0.67 µM) | 3.37 (≈ 5.65 µM) | 
CCCCCCCCCCCC[C@H](O)[C@@H]1CC[C@@H]([C@@H](O)CCCCC(=O)CCCCCC2CC(CC(C)=O)C(=O)O2)O1 (some centres not stated) [ISOANNONACINONE] | 0.5 (≈ 0.841 µM) | 0.009 (≈ 0.0151 µM) | 0.07 (≈ 0.118 µM) |  | 
CCCCCCCCCCCC[C@H](O)[C@@H]1CC[C@@H]([C@@H](O)CCCCC(O)CCCCCC2CC(CC(C)=O)C(=O)O2)O1 (some centres not stated) [ISOANNONACIN] | 3 (≈ 5.03 µM) | 0.002 (≈ 0.00335 µM) | 0.02 (≈ 0.0335 µM) |  | 
CCCCCCCCCCCC[C@H](O)[C@@H]1CC[C@@H]([C@@H](O)CCCCCC(O)CCCCC2CC(CC(C)=O)C(=O)O2)O1 (some centres not stated) [ISOANNORETICUIN] | 3.6 (≈ 6.03 µM) | 3.06 (≈ 5.13 µM) | 0.4 (≈ 0.67 µM) | 6.96 (≈ 11.7 µM) | 
CCCCCCCCCCCC[C@@H](O)[C@H]1CC[C@H]([C@H](O)CCCCCCCCCCCCC2=C[C@H](C)OC2=O)O1 [REL-SOLAMIN] | 0.04 (≈ 0.0708 µM) |  |  | 0.3 (≈ 0.531 µM) | 
CCCCCCCCCCCC[C@H](O)[C@@H]1CC[C@@H]([C@@H](O)CCCCCCCCCCCCCCC2=CC(C)OC2=O)O1 (some centres not stated) [RETICULATACIN] |  | 4.66 (≈ 7.86 µM) | 3.49 (≈ 5.89 µM) |  | EC50 (MCF7): 2.91 µg/mL (≈ 4.91 µM)
CCCCCCCCCCCC[C@H](O)[C@@H]1CC[C@@H]([C@@H](O)CCCCCC(=O)CCCCC2CC(CC(C)=O)C(=O)O2)O1 (some centres not stated) [SQUAMONE] | 5.6 (≈ 9.41 µM) |  | 1.34 (≈ 2.25 µM) | 1.5 (≈ 2.52 µM) | EC50 (MCF7): 2.14 µg/mL (≈ 3.6 µM)
